This passage reports Emax and EC50 results from patent US6936585B2, “Corticotropin releasing factor 2 receptor agonists” (priority 2002, dated 2005).

Structures are written as SMILES. Peptide text beside a SMILES is read from it. A value given as a limit tells only on which side of the number the result lay.

One assay concerns the target T1, CRF2R (Homo sapiens, UniProt Q13324).
T1 sequence (Q13324 1-411): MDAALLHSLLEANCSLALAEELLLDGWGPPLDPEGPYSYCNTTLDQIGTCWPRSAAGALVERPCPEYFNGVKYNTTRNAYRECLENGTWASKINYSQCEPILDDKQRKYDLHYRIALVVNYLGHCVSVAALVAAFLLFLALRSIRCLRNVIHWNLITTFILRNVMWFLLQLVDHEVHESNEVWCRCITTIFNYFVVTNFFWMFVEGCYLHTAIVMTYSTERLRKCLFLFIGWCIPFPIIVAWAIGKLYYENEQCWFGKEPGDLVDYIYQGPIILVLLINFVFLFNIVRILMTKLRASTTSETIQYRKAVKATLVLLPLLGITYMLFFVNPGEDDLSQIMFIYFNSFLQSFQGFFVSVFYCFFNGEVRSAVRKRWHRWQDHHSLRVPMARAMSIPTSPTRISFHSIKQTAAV
Briefly: CRF2R agonist activation (EC50 / Emax), called comparative CRF binding. The note with it: for Emax: read-out: CRF2R Emax. It is filed as cell-based. In a few lines: (§1)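 Receptor-expressing cells are contacted with test peptide or the vehicle it is dissolved in. Lysates are then assayed for cAMP, or expression of a CRE-coupled reporter is quantitated. Engineered cells carrying receptor-G-protein fusions may replace full-length receptors.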

The target in another assay is T2, CRF1R (Homo sapiens, UniProt P34998).
T2 sequence (P34998 24-415): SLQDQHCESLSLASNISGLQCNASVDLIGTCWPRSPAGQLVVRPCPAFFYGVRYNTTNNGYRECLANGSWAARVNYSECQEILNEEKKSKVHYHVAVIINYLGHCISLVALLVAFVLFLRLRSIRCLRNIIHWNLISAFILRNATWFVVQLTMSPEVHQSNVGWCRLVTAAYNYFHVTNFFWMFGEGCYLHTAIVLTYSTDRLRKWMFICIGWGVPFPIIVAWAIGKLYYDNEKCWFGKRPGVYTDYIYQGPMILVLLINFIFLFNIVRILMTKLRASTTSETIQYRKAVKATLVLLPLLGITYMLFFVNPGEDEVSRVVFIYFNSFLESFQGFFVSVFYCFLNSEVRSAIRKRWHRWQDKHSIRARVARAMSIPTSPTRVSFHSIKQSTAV
Put plainly: CRF1R agonist activation (EC50 / Emax), called comparative CRF binding. It is filed as cell-based. Conditions: for Emax: read-out: CRF1R Emax. In a few lines: as §1

Usually Emax stands for the greatest response seen or fitted, relative to the assay's reference. Consider `CC[C@H](C)[C@H](NC(=O)[C@H](C)NC(=O)[C@H](CC(N)=O)NC(=O)[C@H](CCC(N)=O)NC(=O)[C@H](CCC(=O)O)NC(=O)[C@H](C)NC(=O)[C@H](CCCNC(=N)N)NC(=O)[C@H](CCC(=O)O)NC(=O)[C@H](CCCNC(=N)N)NC(=O)[C@H](CCC(N)=O)NC(=O)[C@H](CO)NC(=O)[C@H](CCC(N)=O)NC(=O)[C@@H](NC(=O)[C@H](CCCCN)NC(=O)[C@H](CCC(=O)O)NC(=O)[C@H](CC(C)C)NC(=O)[C@H](CCC(=O)O)NC(=O)[C@H](CC(C)C)NC(=O)[C@H](CC(C)C)NC(=O)[C@@H](NC(=O)[C@H](CCCNC(=N)N)NC(=O)[C@H](CC(C)C)NC(=O)[C@H](CC(C)C)NC(=O)[C@H](CCC(N)=O)NC(=O)[C@H](CC(C)C)NC(=O)[C@@H]1CCCN1C(=O)[C@H](CC(C)C)NC(=O)[C@H](CC(=O)O)NC(=O)[C@@H](NC(=O)[C@H](CO)NC(=O)[C@H](CC(C)C)NC(=O)[C@H](CO)NC(=O)[C@@H]1CCCN1C(=O)[C@H](CC(N)=O)NC(=O)[C@@H](N)CC(=O)O)[C@@H](C)CC)[C@@H](C)O)[C@@H](C)O)C(=O)N[C@H](C(=O)N[C@@H](Cc1ccccc1)C(=O)N[C@@H](C)C(=O)N[C@@H](CO)C(=O)N[C@H](C(N)=O)C(C)C)[C@@H](C)CC` [compound 342] (H-DNPSLSIDLPLQLLRTLLELEKTQSQRERAEQNAIIFASV-NH2; N-terminus assumed), for which the Emax at CRF2R turned out to be 92.2%; at CRF1R, 19.6%.

With `CC[C@H](C)[C@H](NC(=O)[C@H](C)NC(=O)[C@H](CC(N)=O)NC(=O)[C@H](CCC(N)=O)NC(=O)[C@H](CCC(=O)O)NC(=O)[C@H](C)NC(=O)[C@H](CCCNC(=N)N)NC(=O)[C@H](CCC(=O)O)NC(=O)[C@H](CCCNC(=N)N)NC(=O)[C@H](CCC(N)=O)NC(=O)[C@H](CO)NC(=O)[C@H](CCC(N)=O)NC(=O)[C@@H](NC(=O)[C@H](CCCCN)NC(=O)[C@H](CCC(=O)O)NC(=O)[C@H](CC(C)C)NC(=O)[C@H](CCC(=O)O)NC(=O)[C@H](CC(C)C)NC(=O)[C@H](CC(C)C)NC(=O)[C@@H](NC(=O)[C@H](CCCNC(=N)N)NC(=O)[C@H](CC(C)C)NC(=O)[C@H](CC(C)C)NC(=O)[C@H](Cc1ccccc1)NC(=O)[C@H](CC(C)C)NC(=O)[C@@H]1CCCN1C(=O)[C@H](CC(C)C)NC(=O)[C@H](CC(=O)O)NC(=O)[C@@H](NC(=O)[C@H](CO)NC(=O)[C@H](CC(C)C)NC(=O)[C@H](CO)NC(=O)[C@@H]1CCCN1C(=O)[C@H](CC(N)=O)NC(=O)[C@@H](N)CC(=O)O)[C@@H](C)CC)[C@@H](C)O)[C@@H](C)O)C(=O)N[C@H](C(=O)N[C@@H](Cc1ccccc1)C(=O)N[C@@H](C)C(=O)N[C@@H](CO)C(=O)N[C@H](C(N)=O)C(C)C)[C@@H](C)CC` [compound 343] (H-DNPSLSIDLPLFLLRTLLELEKTQSQRERAEQNAIIFASV-NH2; N-terminus assumed), the values for the Emax on CRF2R and at CRF1R were 96.5% and 62.5%, respectively.

For `CC[C@H](C)[C@H](NC(=O)[C@H](C)NC(=O)[C@H](CC(N)=O)NC(=O)[C@H](CCC(N)=O)NC(=O)[C@H](CCC(=O)O)NC(=O)[C@H](C)NC(=O)[C@H](CCCNC(=N)N)NC(=O)[C@H](CCC(=O)O)NC(=O)[C@H](CCCNC(=N)N)NC(=O)[C@H](CCC(N)=O)NC(=O)[C@H](CO)NC(=O)[C@H](CCC(N)=O)NC(=O)[C@@H](NC(=O)[C@H](CCCCN)NC(=O)[C@H](CCC(=O)O)NC(=O)[C@H](CC(C)C)NC(=O)[C@H](CCC(=O)O)NC(=O)[C@H](CC(C)C)NC(=O)[C@H](CC(C)C)NC(=O)[C@@H](NC(=O)[C@H](CCCNC(=N)N)NC(=O)[C@H](CC(C)C)NC(=O)[C@H](CC(C)C)NC(=O)[C@H](CC(C)C)NC(=O)[C@H](CC(C)C)NC(=O)[C@@H]1CCCN1C(=O)[C@H](CC(C)C)NC(=O)[C@H](CC(=O)O)NC(=O)[C@@H](NC(=O)[C@H](CO)NC(=O)[C@H](CC(C)C)NC(=O)[C@H](CO)NC(=O)[C@@H]1CCCN1)[C@@H](C)CC)[C@@H](C)O)[C@@H](C)O)C(=O)N[C@H](C(=O)N[C@@H](Cc1ccccc1)C(=O)N[C@@H](C)C(=O)N[C@@H](CO)C(=O)N[C@H](C(N)=O)C(C)C)[C@@H](C)CC` [compound 344] (H-PSLSIDLPLLLLRTLLELEKTQSQRERAEQNAIIFASV-NH2), the Emax at CRF2R stood at 94.5%; on CRF1R, 77.7%.

The EC50 is the concentration at which the effect is half-maximal. As to `CC[C@H](C)[C@H](NC(=O)[C@H](C)NC(=O)[C@H](CC(N)=O)NC(=O)[C@H](CCC(N)=O)NC(=O)[C@H](CCC(=O)O)NC(=O)[C@H](C)NC(=O)[C@H](CCCNC(=N)N)NC(=O)[C@H](CCC(=O)O)NC(=O)[C@H](CCCNC(=N)N)NC(=O)[C@H](CCC(N)=O)NC(=O)[C@H](CO)NC(=O)[C@H](CCC(N)=O)NC(=O)[C@@H](NC(=O)[C@H](CCCCN)NC(=O)[C@H](CCC(=O)O)NC(=O)[C@H](CC(C)C)NC(=O)[C@H](CCC(=O)O)NC(=O)[C@H](CC(C)C)NC(=O)[C@H](CC(C)C)NC(=O)[C@@H](NC(=O)[C@H](CCCNC(=N)N)NC(=O)[C@H](CC(C)C)NC(=O)[C@H](CC(C)C)NC(=O)[C@@H](NC(=O)[C@H](CC(C)C)NC(=O)[C@@H]1CCCN1C(=O)[C@H](CC(C)C)NC(=O)[C@H](CC(=O)O)NC(=O)[C@@H](NC(=O)[C@H](CO)NC(=O)[C@H](CC(C)C)NC(=O)[C@H](CO)NC(=O)[C@@H]1CCCN1C(=O)[C@H](CC(N)=O)NC(=O)[C@@H](N)CC(=O)O)[C@@H](C)CC)[C@@H](C)CC)[C@@H](C)O)[C@@H](C)O)C(=O)N[C@H](C(=O)N[C@@H](Cc1ccccc1)C(=O)N[C@@H](C)C(=O)N[C@@H](CO)C(=O)N[C@H](C(N)=O)C(C)C)[C@@H](C)CC` [compound 345] (H-DNPSLSIDLPLILLRTLLELEKTQSQRERAEQNAIIFASV-NH2; N-terminus assumed), the values for the concentration giving a half-maximal response (EC50) on CRF2R (read-out: CRF2R EC50) and at CRF1R (read-out: CRF1R EC50) were 39.7 nM and at least 1000 nM, respectively. Besides, the maximal response (Emax) was determined as 100% at CRF2R and 18.8% at CRF1R.

In the case of `CC[C@H](C)[C@H](NC(=O)[C@H](C)NC(=O)[C@H](CC(N)=O)NC(=O)[C@H](CCC(N)=O)NC(=O)[C@H](CCC(=O)O)NC(=O)[C@H](C)NC(=O)[C@H](CCCNC(=N)N)NC(=O)[C@H](CCC(=O)O)NC(=O)[C@H](CCCNC(=N)N)NC(=O)[C@H](CCC(N)=O)NC(=O)[C@H](CO)NC(=O)[C@H](CCC(N)=O)NC(=O)[C@@H](NC(=O)[C@H](CCCCN)NC(=O)[C@H](CCC(=O)O)NC(=O)[C@H](CC(C)C)NC(=O)[C@H](CCC(=O)O)NC(=O)[C@H](CC(C)C)NC(=O)[C@H](CC(C)C)NC(=O)[C@@H](NC(=O)[C@H](CCCNC(=N)N)NC(=O)[C@H](CC(C)C)NC(=O)[C@H](CC(C)C)NC(=O)[C@H](CC(C)C)NC(=O)[C@H](CC(C)C)NC(=O)[C@@H]1CCCN1C(=O)[C@H](CC(C)C)NC(=O)[C@H](CC(=O)O)NC(=O)[C@@H](NC(=O)[C@H](CO)NC(=O)[C@H](CC(C)C)NC(=O)[C@H](CO)NC(=O)[C@@H]1CCCN1C(=O)[C@H](CC(N)=O)NC(=O)[C@@H](N)CC(=O)O)[C@@H](C)CC)[C@@H](C)O)[C@@H](C)O)C(=O)N[C@H](C(=O)N[C@@H](Cc1ccccc1)C(=O)N[C@@H](C)C(=O)N[C@@H](CO)C(=O)N[C@H](C(N)=O)C(C)C)[C@@H](C)CC` [compound 346] (H-DNPSLSIDLPLLLLRTLLELEKTQSQRERAEQNAIIFASV-NH2; N-terminus assumed), the Emax at CRF2R was 97.8%; at CRF1R, 59%.
